Measured values from patent US9809573B2, “Substituted pyridine derivatives useful as GSK-3 inhibitors” (priority 2013, dated 2017).
Read-outs that look alike come from different tables or passages of the source.

Tests used:
GSK3β = GSK3β (Homo sapiens, UniProt P49841); experiment: GSK3β kinase assay (Caliper LabChip3000, fluoresceinated peptide substrate); assay type: biochemical
How it was run: (§1)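 RT, 20 h incubation; EDTA stop (35 mM). Microfluidic electrophoretic separation of product vs. substrate.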

GSK3α = GSK3α (Homo sapiens, UniProt P49840); experiment: biochemical
How it was run: as §1

pTau = pTau assay (method not described); assay type: cell-based
[1] = first value of the cell, 250 pM enzyme, 20 uM ATP, 20 hours at room temperature, read-out: GSK3β/α (nM): GSK3β IC50
[2] = second value of the cell, 250 pM enzyme, 20 uM ATP, 20 hours at room temperature, read-out: GSK3β/α (nM): GSK3α IC50

Sequence of GSK3β (P49841 whole entry, species assumed): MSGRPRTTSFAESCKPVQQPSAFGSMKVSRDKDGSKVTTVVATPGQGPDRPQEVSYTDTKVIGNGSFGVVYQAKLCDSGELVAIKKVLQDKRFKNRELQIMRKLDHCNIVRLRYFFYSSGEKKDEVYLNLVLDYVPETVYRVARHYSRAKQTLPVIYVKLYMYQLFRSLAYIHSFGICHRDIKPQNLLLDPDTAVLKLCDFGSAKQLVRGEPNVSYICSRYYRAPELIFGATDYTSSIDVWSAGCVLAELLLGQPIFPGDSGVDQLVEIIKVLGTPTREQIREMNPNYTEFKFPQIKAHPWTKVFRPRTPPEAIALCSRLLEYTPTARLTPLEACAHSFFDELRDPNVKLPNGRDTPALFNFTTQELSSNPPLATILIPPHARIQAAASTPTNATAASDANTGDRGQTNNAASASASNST
Sequence of GSK3α (P49840 whole entry, species assumed): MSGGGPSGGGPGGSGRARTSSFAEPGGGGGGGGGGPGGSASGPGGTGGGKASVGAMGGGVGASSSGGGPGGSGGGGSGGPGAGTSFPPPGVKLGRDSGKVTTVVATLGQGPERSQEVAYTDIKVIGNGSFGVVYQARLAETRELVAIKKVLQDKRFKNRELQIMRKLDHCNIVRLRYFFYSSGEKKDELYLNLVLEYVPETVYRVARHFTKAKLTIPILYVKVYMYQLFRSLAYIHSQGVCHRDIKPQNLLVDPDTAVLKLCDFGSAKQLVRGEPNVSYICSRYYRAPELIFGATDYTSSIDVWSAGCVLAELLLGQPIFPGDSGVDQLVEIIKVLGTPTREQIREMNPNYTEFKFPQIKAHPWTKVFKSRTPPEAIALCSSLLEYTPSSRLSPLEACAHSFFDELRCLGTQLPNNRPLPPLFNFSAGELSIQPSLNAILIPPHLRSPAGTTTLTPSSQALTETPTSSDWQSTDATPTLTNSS

Structure (SMILES) | IC50 (GSK3β; [1]) | IC50 (GSK3α; [2]) | IC50 (pTau; read-out: pTau) | IC50 (GSK3α) | IC50 (pTau; read-out: pTau (nM)) | IC50 (GSK3β)
O=C(Nc1cncc(-c2ccc(F)cc2)c1)c1ccnc(NC(=O)C2CC2)c1 [Example 111, 2-(cyclopropanecarboxamido)-N-(5-(4-fluorophenyl)pyridin-3-yl)isonicotinamide] | – | 0.95 nM | 570 nM | – | – | 6.4 nM
O=C(Nc1cncc(C2CCC2)c1)c1ccnc(NC(=O)C2CC2)c1 [Example 113, N-(5-cyclobutylpyridin-3-yl)-2-(cyclopropanecarboxamido)isonicotinamide] | – | 1.75 nM | 330 nM | – | – | 1 nM
O=C(Nc1cncc(-c2ccc(F)cc2F)c1)c1ccnc(NC(=O)C2CC2)c1 [Example 114, 2-(cyclopropanecarboxamido)-N-(5-(2,4-difluorophenyl)pyridin-3-yl)isonicotinamide] | 1.6 nM | 1.3 nM | 990 nM | – | – | –
O=C(Nc1cncc(-n2ccnc2)c1)c1ccnc(NC(=O)C2CC2)c1 [Example 119, N-(5-(1H-imidazol-1-yl)pyridin-3-yl)-2-(cyclopropanecarboxamido)isonicotinamide] | 2.4 nM | 1 nM | 410 nM | – | – | –
O=C(Nc1cncc(-c2ccc(OC(F)(F)F)cc2)c1)c1ccnc(NC(=O)C2CC2)c1 [Example 120, 2-(cyclopropanecarboxamido)-N-(5-(4-(trifluoromethoxy)phenyl)pyridin-3-yl)isonicotinamide] | 11 nM | 8 nM | 5400 nM | – | – | –
COc1ccccc1-c1cncc(NC(=O)c2ccnc(NC(=O)C3CC3)c2)c1 [Example 123, 2-(cyclopropanecarboxamido)-N-(5-(2-methoxyphenyl)pyridin-3-yl)isonicotinamide] | – | 1.4 nM | – | – | 200 nM | 3.7 nM
O=C(Nc1cncc(-c2cc(F)ccc2F)c1)c1ccnc(NC(=O)C2CC2)c1 [Example 142, 2-(cyclopropanecarboxamido)-N-(5-(2,5-difluorophenyl)pyridin-3-yl)isonicotinamide] | – | – | – | 0.76 nM | 100 nM | 1.5 nM
O=C(Nc1cncc(-c2ccc(Cl)cc2Cl)c1)c1ccnc(NC(=O)C2CC2)c1 [Example 148, 2-(cyclopropanecarboxamido)-N-(5-(2,4-dichlorophenyl)pyridin-3-yl)isonicotinami] | 9.7 nM | 2.4 nM | 620 nM | – | – | –

The next lines start with results.

IC50 (GSK3β; [1]) | IC50 (GSK3α; [2]) | IC50 (pTau; read-out: pTau) | IC50 (GSK3α) | IC50 (pTau; read-out: pTau (nM)) | Structure (SMILES) | IC50 (GSK3β)
73 nM | 11 nM | 5600 nM | – | – | O=C(Nc1cncc(Cc2ccccc2)c1)c1ccnc(NC(=O)C2CC2)c1 [Example 110, N-(5-benzylpyridin-3-yl)-2-(cyclopropanecarboxamido)isonicotinamide] | –
4.1 nM | 4.3 nM | 780 nM | – | – | N#Cc1ccc(-c2cncc(NC(=O)c3ccnc(NC(=O)C4CC4)c3)c2)cc1 [Example 115, N-(5-(4-cyanophenyl)pyridin-3-yl)-2-(cyclopropanecarboxamido)isonicotinamide] | –
– | – | – | 0.28 nM | 180 nM | O=C(Nc1cncc(-c2ccccc2F)c1)c1ccnc(NC(=O)C2CC2)c1 [Example 116, 2-(cyclopropanecarboxamido)-N-(5-(2-fluorophenyl)pyridin-3-yl)isonicotinamide] | 0.35 nM
1.5 nM | 0.74 nM | 330 nM | – | – | O=C(Nc1cncc(-n2cccn2)c1)c1ccnc(NC(=O)C2CC2)c1 [Example 118, N-(5-(1H-pyrazol-1-yl)pyridin-3-yl)-2-(cyclopropanecarboxamido)isonicotinamide] | –
12 nM | 6.1 nM | 510 nM | – | – | O=C(Nc1cncc(-c2ccccc2C(F)(F)F)c1)c1ccnc(NC(=O)C2CC2)c1 [Example 124, 2-(cyclopropanecarboxamido)-N-(5-(2-(trifluoromethyl)phenyl)pyridin-3-yl)isonicotinamide] | –
780 nM | 170 nM | 1400 nM | – | – | CN(C)Cc1ccccc1-c1cncc(NC(=O)c2ccnc(NC(=O)C3CC3)c2)c1 [Example 145, 2-(cyclopropanecarboxamido)-N-(5-(2-((dimethylamino)methyl)phenyl)pyridin-3-yl)isonicotinamide] | –
27 nM | 5.9 nM | 950 nM | – | – | O=C(Nc1cncc(-c2cccc3[nH]ccc23)c1)c1ccnc(NC(=O)C2CC2)c1 [Example 147, N-(5-(1H-indol-4-yl)pyridin-3-yl)-2-(cyclopropanecarboxamido)isonicotinamide] | –
8.8 nM | 3.1 nM | 240 nM | – | – | Cn1ccc(-c2cncc(NC(=O)c3ccnc(NC(=O)C4CC4)c3)c2)c1 [Example 151, 2-(cyclopropanecarboxamido)-N-(5-(1-methyl-1H-pyrrol-3-yl)pyridin-3-yl)isonicotinamide] | –
9.1 nM | 3.3 nM | 770 nM | – | – | O=C(Nc1cncc(-c2cccc(Cl)c2)c1)c1ccnc(NC(=O)C2CC2)c1 [Example 155, N-(5-(3-chlorophenyl)pyridin-3-yl)-2-(cyclopropanecarboxamido)isonicotinamide] | –
